# Test system: flexor reflex in normal anesthetized rats
# Assay: Flexor reflex in normal anesthetized rats (FIG. 3)
# Type: in vivo, rat
# Details: in comparison to baclofen, FIG. 3 legend only, values not given
# Source text: Baclofen, diazepam (Valium), and tizanidine are effective on different parameters of spasticity (EMG recordings, H-reflex, the H/M ratio, mono- and polysynaptic reflexes, clonus, hyperreflexia) in these models. The flexor reflex is a polysynaptic response elicited by stimulation of the bottom of the foot and models the withdrawal reflex.
smiles,measurement,value
"NC(=O)CC(c1cccc(F)c1)c1cccc(F)c1 [Compound 1, 3,3-bis(3-fluorophenyl)propanamide]",reduction in the flexor reflex,reduction in the flexor reflex

# From patent US6617358B1, “Anticonvulsant and central nervous system-depressing bis(fluorophenyl)alkylamides and their uses” (NPS Pharmaceuticals, Inc., priority 1997, dated 2003)
